# Laboratory results published in publication PMC5702336, “Critical Role of Hepatic Cyp450s in the Testis-Specific Toxicity of (5R)-5-Hydroxytriptolide in C57BL/6 Mice” (Frontiers in Pharmacology, 2017).
# Experiments:
# γ-H2AX = γ-H2AX protein level and localization in testes and liver (western blot, immunofluorescence); type: in vivo, mouse
# Protocol: (§1) For toxicity experiments, mice (n = 3/group) were treated with LLDT-8 (0.5 or 1.0 mg/kg) consecutively administered by gavage for 15 days. Controls received saline. Mice were killed on the 15th-day post-administration and blood, liver, kidney, spleen, testes, and epididymis were collected. About 500 μL blood samples were collected from the heart. The main lobe of the liver, kidney, spleen, and epididymis was fixed in 10% neutral buffered formalin for histological examination, and the left testicle was fixed in modified Davidson's buffer (30% of a 37–40% solution of formaldehyde, 15% ethanol, 5% glacial acetic acid, and 50% distilled H2O) for 16 h followed by 10% neutral buffered formalin for 24 h (Latendresse et al., [2002]). Tissue sections were stained with hematoxylin and eosin (H&E). Remaining tissues were stored at −80°C for RNA and protein extraction.
# (§2) Cells were washed twice with ice-cold PBS (137 mM NaCl, 2.7 mM KCl, 10 mM Na2HPO4, and 1.8 mM KH2PO4, pH 7.4) and lysed in SDS sample buffer. Cell lysates, containing 20 μg of protein, were separated with SDS-PAGE (8%) and transferred to polyvinylidene difluoride membranes. After blocking in 5% non-fat milk in tris-buffered saline containing 0.1% Tween-20 (pH = 7.6), membranes were incubated with the appropriate primary antibodies at 4°C overnight. The primary antibodies γ-H2AX (Cat. No: 2577, Lot. No: 11, CST, USA) and Pol II (Cat. No: 05-623, Lot. No: 2397109, Millipore, USA) diluted 1:1000 in 5% bovine serum albumin (BSA, Cat. No. B2064-50G, Sigma, USA). Then the membranes were exposed to secondary antibodies (1:10,000, Cat. No.111-035-003, 115-035-003, Jackson ImmunoResearch Laboratories, USA) in 5% non-fat milk for 1 h at room temperature. Immunoreactive proteins were visualized using an enhanced chemiluminescent system (Cat. No. WBKLS0500, Millipore, Shanghai, China).
# For immunofluorescence analysis, the paraffin-embedded testis tissue samples were deparaffinized three times in exchanges wash of xylene. The testis sections were then gradually rehydrated using decreasing ethanol concentrations followed by PBS (pH = 7.4). After antigen retrieval in boiling 0.1M citrate buffer (pH = 6.0), the tissue sections were placed in humidity chambers and incubated with 4% BSA in PBS for 2 h at room temperature. Then 1:400 1% BSA diluted γ-H2AX primary antibody (Cat. No: ab26350, Lot. No: GR305763-3, Abcam, USA) and isotope control Mouse IgG1 (Cat. No: sc-3877, Lot. No: F1316, Santa Cruz, USA) was used. After incubated with primary antibody overnight at 4°C, testis tissue samples were washed three times with PBS. […]
# GC-2spd cells = assay: Pol II protein level in spermatocyte-like cells (western blot); type: cell-based, mouse
# Protocol: (§3) Mouse GC-1spg (spermatogonia-like, ATCC number: CRL-2053), TM4 (Sertoli cell-like, ATCC number: CRL-1715), and GC-2spd (spermatocyte-like, ATCC number: CRL-2196) were purchased from ATCC (Manassas, VA). Cells were grown in a 5% CO2 atmosphere at 37°C. TM4 was cultured in DMEM supplemented with 5% horse serum, 2.5% fetal bovine serum and 1x antibiotic-antimyotic (Cat. NO. 15240062, Life technologies). GC-1spg and GC-2spd were cultured in DMEM supplemented with 10% fetal bovine serum (Cat. No. F2442, Sigma, USA) and 1x antibiotic-antimyotic (Cat.NO. 15240062, Life technologies).
# as §2, with “Then the membranes were exposed to secondary antibodies (1:10,000, Cat. No.111-035-003, 115-035-003, Jackson ImmunoResearch Laboratories, USA) in 5% non-fat milk for 1 h at room temperature. Immunoreactive proteins were visualized using an enhanced chemiluminescent system (Cat. No. WBKLS0500, Millipore, Shanghai, China).” left out
# [1] = test system: GC-2spd, GC-1spg and TM4 cells; assay: γ-H2AX protein level in three germ-cell lines (western blot); type: cell-based, mouse; conditions: 8h/16h treatment
# Protocol: as §3
# Cells were washed twice with ice-cold PBS (137 mM NaCl, 2.7 mM KCl, 10 mM Na2HPO4, and 1.8 mM KH2PO4, pH 7.4) and lysed in SDS sample buffer. Cell lysates, containing 20 μg of protein, were separated with SDS-PAGE (8%) and transferred to polyvinylidene difluoride membranes. […]
# The effects of LLDT-8 on the expression of γ-H2AX was investigated in spermatocyte-like GC-2spd cells (A), spermatogonia-like cells (B) and sertoli-like cells (C) after 8h/16h treatment of LLDT-8 at indicated concentration. The protein level was quantified with ImageQuant software. β-actin was used as a loading control. Significant difference was determined by one-way Anova, Bars represent the mean ± SD, n = 3, * p<0.05, ** p<0.01 vs control group (0 nM).
# testes gene expression = assay: qPCR of AR-related, Sertoli cell and germ cell marker genes in testes; type: in vivo, mouse
# Protocol: as §1
# Total mouse testes RNA was isolated using a UNIQ-10 total RNA isolation kit (Sangon Biotech, Shanghai, China). One micro gram RNA per sample was reverse-transcribed into cDNA using a PrimeScript RT reagent kit (Cat. No. RR036A, Takara, Dalian, China). The purity and quality of RNA and cDNA were checked by A260/A280 ratio and agarose gel. The qPCR was executed in 20 μL volume containing 10 μL SYBR Premix Ex Taq (Cat. No. RR820A, Takara, Dalian, China), 8 μL of cDNA (80 ng cDNA), 1 μL forward primer (500 nM) and 1 μL reverse primer (500 nM). The sequences of primers for Androgen-binding protein (ABP) and cystatin 12 (Cst12) were referenced from PrimerBank. The sequences for other genes were described elsewhere [Deleted in azoospermia-like (Dazl), Heat shock protein a2 (Hspa2), Phosphoglycerate kinase-2 (Pgk2), Protamine 1 (Prm1), GATA binding protein 1 (Gata1) and Zbtb16 zinc finger and BTB domain containing 16 (Plzf) (Qi et al., [2016]); AR (Ma et al., [2013]); Reproductive homeobox 5 (Rhox5) (Kurek et al., [2015]); Fatty acid binding protein (FABP) (Vanschoonbeek et al., [2008]); Claudin 11 (Cldn11) (Sumigray et al., [2014]); β-actin (Wan et al., [2017])]. The qPCR process was performed using a Rotor Gene Q PCR system (QIAGEN, Shanghai, China). The qPCR amplification program consisted of polymerase activation at 98°C for the 30 s and 40 cycles of denaturation at 95°C for 5 s, annealing, and extension at 60°C for 40 s. The melting curve analysis was carried out for each reaction from 50 to 99°C. The CT values for the samples were normalized to the corresponding β-actin CT values.
# mice = test system: mice; set-up: method as in Zhou et al., 2005; conditions: p.o., ref Zhou et al., 2005; cited from earlier work
smiles,measurement,setting,value
"CC(C)[C@]12O[C@H]1[C@@H]1O[C@]13[C@]1(O[C@H]1C[C@@]1(O)C4=C(CC[C@]31C)C(=O)OC4)[C@@H]2O [LLDT-8, (5R)-5-hydroxytriptolide]",XY bodies indicated by γ-H2AX foci in testes of WT mice,"γ-H2AX; 1.0 mg/kg LLDT-8, 15 days",decreased
same,γ-H2AX protein level (immunoblotting) in testes and liver,"γ-H2AX; 0.5–1 mg/kg, 15 days",reduction of γ-H2AX protein level in the testes but not in the liver
same,XY bodies indicated by γ-H2AX foci in testes of KO mice,"γ-H2AX; LLDT-8 treated, 15 days",disappeared
same,reduction of γ-H2AX in the testes of WT mice,"γ-H2AX; immunoblotting, not statistically significant",up to 40%
same,Pol II protein,GC-2spd cells,dose- and time-dependently reduced
same,protein levels of γ-H2AX in three germ-cell lines,[1],did not decrease
same,"expression of AR, Rhox5, Cldn11, Cst12, ABP and FABP in testes of WT mice","testes gene expression; 0.5–1.0 mg/kg, 15 days",did not reduce
same,expression of Dazl and Prm1 in testes of WT mice,testes gene expression; 15 days,marked decrease
same,expression of Hspa2 in testes of WT mice,testes gene expression; 15 days,mild decrease
same,"expression of Cldn11, Cst12 and FABP in testes of WT mice",testes gene expression; particularly in 1.0 mg/kg group,increased
same,LD50,mice,9.3 mg/kg
